The values below come from ChEMBL document CHEMBL1138930, “Discovery of novel triazole-based opioid receptor antagonists” (J Med Chem, 2006).

What is called inhibition is the share of the control response that was lost under treatment. A high value points to a response far below the control. As usually defined, the Ki is a dissociation constant, usually derived from enzyme kinetics or from competition with a known ligand. Low readings indicate tighter binding, high ones weaker binding.

In assay [1] the test system is Delta and mu opioid receptors (Mus musculus). The assay can be described thus: Selectivity for delta opioid receptor over mu opioid receptor.
Assay [2] relates to Delta (Mus musculus) and kappa (Rattus norvegicus) opioid receptors. The assay can be described thus: Selectivity for delta opioid receptor over kappa opioid receptor.
Assay [3] concerns the target Mu-type opioid receptor (Mus musculus) (UniProt P42866). Briefly: Inhibition of (-)-[9-3H]bremazocine binding to mu opioid receptor at 10 uM.
The target in assay [4] is Delta-type opioid receptor (Mus musculus) (UniProt P32300). The assay can be described thus: Inhibition of (-)-[9-3H]bremazocine binding to delta opioid receptor at 10 uM.
Delta-type opioid receptor (Mus musculus), sequence (P32300 whole entry, looked up): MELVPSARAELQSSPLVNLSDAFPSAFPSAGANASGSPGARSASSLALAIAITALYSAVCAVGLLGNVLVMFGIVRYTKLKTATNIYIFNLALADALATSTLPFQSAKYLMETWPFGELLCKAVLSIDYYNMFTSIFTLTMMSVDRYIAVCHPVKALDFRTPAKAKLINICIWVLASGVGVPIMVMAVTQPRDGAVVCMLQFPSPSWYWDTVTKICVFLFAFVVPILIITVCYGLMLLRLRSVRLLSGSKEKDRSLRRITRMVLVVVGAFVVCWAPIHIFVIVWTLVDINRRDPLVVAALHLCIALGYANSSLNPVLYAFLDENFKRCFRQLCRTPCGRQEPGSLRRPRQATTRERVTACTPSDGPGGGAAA
For assay [5], the target named is Kappa-type opioid receptor (Rattus norvegicus) (UniProt P34975). The assay can be described thus: Inhibition of (-)-[9-3H]bremazocine binding to kappa opioid receptor at 10 uM.
Kappa-type opioid receptor (Rattus norvegicus), sequence (P34975 whole entry, looked up): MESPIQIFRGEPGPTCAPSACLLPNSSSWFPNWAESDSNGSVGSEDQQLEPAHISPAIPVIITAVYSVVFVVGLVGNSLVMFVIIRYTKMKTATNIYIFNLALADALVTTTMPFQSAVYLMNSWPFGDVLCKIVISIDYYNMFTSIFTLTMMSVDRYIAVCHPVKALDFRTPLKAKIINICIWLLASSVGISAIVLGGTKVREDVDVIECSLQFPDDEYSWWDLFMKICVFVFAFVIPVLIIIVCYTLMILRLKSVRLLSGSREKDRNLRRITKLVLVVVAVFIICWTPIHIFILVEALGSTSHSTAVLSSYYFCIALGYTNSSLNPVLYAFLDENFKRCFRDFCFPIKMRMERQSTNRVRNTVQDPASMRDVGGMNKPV
Assay [6] addresses Mu-type opioid receptor (Mus musculus) (UniProt P42866). Briefly: Inhibition of (-)-[9-3H]bremazocine binding to mu opioid receptor expressed in HEK293 cells.
The target in assay [7] is Delta-type opioid receptor (Mus musculus) (UniProt P32300). The assay can be described thus: Inhibition of (-)-[9-3H]bremazocine binding to delta opioid receptor expressed in HEK293 cells.
The target of assay [8] is Kappa-type opioid receptor (Rattus norvegicus) (UniProt P34975). Briefly: Inhibition of (-)-[9-3H]bremazocine binding to kappa opioid receptor expressed in HEK293 cells.

Mu-type opioid receptor (Mus musculus), sequence (P42866 whole entry, looked up): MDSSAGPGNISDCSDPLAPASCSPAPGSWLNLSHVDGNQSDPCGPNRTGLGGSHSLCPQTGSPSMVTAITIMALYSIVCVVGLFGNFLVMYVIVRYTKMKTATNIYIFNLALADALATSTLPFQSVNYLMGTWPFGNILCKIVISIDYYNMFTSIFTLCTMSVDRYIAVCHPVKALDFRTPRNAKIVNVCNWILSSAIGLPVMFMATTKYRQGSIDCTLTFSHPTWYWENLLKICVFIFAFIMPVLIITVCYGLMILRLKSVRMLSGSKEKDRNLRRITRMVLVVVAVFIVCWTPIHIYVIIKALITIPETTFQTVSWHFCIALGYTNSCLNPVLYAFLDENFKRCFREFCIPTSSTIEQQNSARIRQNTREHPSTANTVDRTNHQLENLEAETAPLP

Take `CN(C)c1nnc(-c2cccc(-c3ccccc3)c2)n1-c1cccc(O)c1`: the Selectivity ratio in assay [1] and in assay [2] was over 66.6 each time. The values for the inhibition in assay [3], in assay [4] and in assay [5] were 23%, 86% and 8%, respectively. The Ki in assay [6] was over 10 µM; in assay [7], 0.15 µM; in assay [8], over 10 µM.

Consider `Oc1cccc(-n2cnnc2-c2ccc(-c3ccccc3)cc2)c1`, for which the figures for the inhibition in assay [3], in assay [4] and in assay [5] were 60%, 75% and 46%, respectively. In addition, the inhibition constant (Ki) in assay [6] was over 10 µM; in assay [7], 1.5 µM; in assay [8], over 10 µM.

Turning to `CC(C)(C)c1ccc(-c2nncn2-c2cccc(O)c2)cc1`, the figures for the inhibition in assay [3], in assay [4] and in assay [5] were 16%, 54% and 16%, respectively. Besides, the Ki in assay [6] was over 10 µM; in assay [7], 10 µM; in assay [8] it was over 10 µM.

For the compound `Oc1cccc(-n2cnnc2-c2cccc(-c3ccccc3)c2)c1`, the figures for the Selectivity ratio in assay [1] and in assay [2] were 7.14 and over 71.4, respectively. The values for the inhibition in assay [3], in assay [4] and in assay [5] were 84%, 84% and 42%, respectively. The compound further showed a Ki in assay [8] of over 10 µM.

On to `CC(C)(C)c1cccc(-c2nncn2-c2cccc(O)c2)c1`, for which the Selectivity ratio in assay [1] is 3.7; in assay [2] it was 6.52. Besides, the inhibition is 78% in assay [3], 91% in assay [4] and 66% in assay [5]. Moreover, the inhibition constant Ki in assay [6] came to 0.85 µM; in assay [7] it was 0.23 µM; in assay [8], 1.5 µM.

Consider `CN(C)c1nnc(-c2cccc(C(C)(C)C)c2)n1-c1cccc(O)c1`, for which the inhibition in assay [3] turned out to be 19%; in assay [4] it was 76%; in assay [5], 6%. Moreover, the Ki in assay [6] was over 10 µM; in assay [7] it was 1.05 µM; in assay [8] it was over 10 µM.

For `COc1cccc(-n2cnnc2-c2ccc(C(C)(C)C)cc2)c1`, the inhibition was found to be 9% in assay [3] and 8% in assay [5]. In addition, the inhibition constant Ki in assay [6] and in assay [8] was over 10 µM throughout.

With `CN(C)c1nnc(-c2ccc3ccccc3c2)n1-c1cccc(O)c1`, the Selectivity ratio in assay [1] and in assay [2] was over 20.8 throughout. Besides, the inhibition in assay [3] came to 48%; in assay [4] it was 68%; in assay [5], 27%. Further, the Ki was over 10 µM in assay [6], 0.48 µM in assay [7] and over 10 µM in assay [8].

For the compound `CN(C)c1nnc(-c2ccc(-c3ccccc3)cc2)n1-c1cccc(O)c1`, the inhibition in assay [3] was 15%; in assay [4], 82%; in assay [5] it was 11%. The figures for the Ki in assay [6], in assay [7] and in assay [8] were over 10 µM, 0.13 µM and over 10 µM, respectively.

As to `COc1cccc(-n2cnnc2-c2cccc(C(C)(C)C)c2)c1`, the inhibition in assay [5] came to 5%. For the same compound, the Ki in assay [8] was over 10 µM.

For the compound `Oc1cccc(-n2cnnc2-c2ccc3ccccc3c2)c1`, the Selectivity ratio in assay [1] and in assay [2] was over 4.76 in each case. The inhibition in assay [3] turned out to be 48%; in assay [4], 68%; in assay [5], 27%. Also, the inhibitory constant (Ki) in assay [6] was over 10 µM; in assay [7], 2.1 µM; in assay [8], over 10 µM.

With `CN(C)c1nnc(-c2ccc(C(C)(C)C)cc2)n1-c1ccc(O)cc1`, the inhibition turned out to be 8% in assay [3], 27% in assay [4] and 21% in assay [5]. Further, the inhibition constant (Ki) in assay [6], in assay [7] and in assay [8] was over 10 µM each time.

As for `CN(C)Cc1nnc(-c2cccc(C(C)(C)C)c2)n1-c1cccc(O)c1`, the inhibition in assay [4] came out at 65%. In assay [7], this compound yielded an inhibition constant Ki of 2.6 µM.

In the case of `CN(C)CCc1nnc(-c2ccc(C(C)(C)C)cc2)n1-c1cccc(O)c1`, the inhibition is 23% in assay [3], 90% in assay [4] and 19% in assay [5]. The inhibitory constant (Ki) in assay [6] is over 10 µM; in assay [7] it was 0.9 µM; in assay [8], over 10 µM.

As for `CN1CCN(c2nnc(-c3ccc(C(C)(C)C)cc3)n2-c2cccc(O)c2)CC1`, the inhibition in assay [3] came out at 5%; in assay [4] it was 18%; in assay [5], 12%. Also, the Ki in assay [6], in assay [7] and in assay [8] was over 10 µM each time.

On to `CN(C)c1nnc(-c2ccc(C(C)(C)C)cc2)n1-c1cccc(O)c1`, for which the Selectivity ratio in assay [1] was 80; in assay [2] it was over 200. Further, the inhibition in assay [3] turned out to be 32%; in assay [4], 94%; in assay [5] it was 6%. Besides, the results for the Ki in assay [6], in assay [7] and in assay [8] were 4 µM, 0.05 µM and over 10 µM, respectively.

In the case of `COc1cccc(-n2c(-c3ccc(C(C)(C)C)cc3)nnc2N(C)C)c1`, the inhibition in assay [3] worked out at 50%; in assay [4], 28%; in assay [5] it was 3%. Besides, the Ki in assay [6], in assay [7] and in assay [8] was over 10 µM throughout.

Compound `CN(C)Cc1nnc(-c2ccc(C(C)(C)C)cc2)n1-c1cccc(O)c1` came in with an inhibition in assay [5] of 9%. The compound also showed a Ki in assay [8] of over 10 µM.
